From patent US8076352B2, “Administration of carboline derivatives useful in the treatment of cancer and other diseases” (PTC Therapeutics, Inc., priority 2004, dated 2011) come the findings set out here.

One test concerns the target T1, recombinant PDE5 (Homo sapiens, UniProt O76074).
T1 construct: purchased CalBioChem
Nature of the test: PDE5 activity, High-Efficiency Fluorescence Polarization Assay (HEFP). Type of test: biochemical. Conditions: 45 minutes at room temperature, vs positive control Tadalafil, FIG. 12. The method, then:
The compounds of the invention are tested to assess their affect on phosphodiesterase 5 (PDE5) activity. The affect on PDE5 activity is determined using the High-Efficiency Fluorescence Polarization Assay (HEFP) kit from Molecular Devices. The HEFP assay measures the activity of PDE-5 by using fluorescein-labeled derivatives of cGMP as a substrate. When hydrolyzed by PDE-5, fluorescein-labeled cGMP derivatives are able to bind to a binding reagent. The cGMP substrate:binding reagent complex results in a highly polarized fluorescent state.
After combining recombinant PDE5 (CalBioChem) and the cGMP substrate, the mixture is incubated at room temperature for 45 minutes in the presence or absence of compounds or a positive control (Tadalafil). The reaction is stopped upon addition of the binding reagent. Fluorescence polarization is determined on a Viewlux using a setting recommended by the manufacturer.
In general terms: In fluorescence polarisation assays a small probe gives low polarisation when free and higher when bound to something large.

Test [1] concerns hypoxia-inducible endogenous VEGF expression in HeLa cells. In words: Hypoxia-inducible endogenous VEGF expression, VEGF ELISA of conditioned media (dose-response EC50). Format: cell-based. The gist of the method:
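Secreted VEGF was quantified by ELISA against a per-assay standard curve after HeLa cells spent 24-48 h in 1% O2, 5% CO2, N2 balance with or without compound. Across a series of, e.g., seven concentrations, percentage inhibition (max 100%, min 0%) gave EC50 and CC50 values.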
(In general: In an ELISA, binding on a coated surface is turned into a signal by an enzyme label.)

In the next test the test system is lung cancer tumor. Nature of the test: Lung cancer tumor growth in vivo. Set-up: species or system nude mice. Particulars: 3 mg/kg twice a day or 30 mg/kg twice a day, vs vehicle, FIG. 1. The method, then:
(§1) Compounds of the invention also show activity in the following pharmacodynamic model that assesses tumor VEGF levels. Briefly, HT1080 cells (a human fibrosarcoma cell line) may be implanted subcutaneously in nude mice. After seven days, mice may be administrated compounds orally at a desired dosage range, e.g., 200 mg/kg/day, for seven days. The tumors may then be excised from mice, weighed and homogenized in Tris-HCl buffer containing proteinase inhibitors. Moulder et al., Cancer Res. 61(24):8887-95 (2001). Tumor VEGF levels are subsequently measured using a human VEGF ELISA kit (R&D System). Protein concentrations of the homogenates are measured with a Bio-Rad Protein assay kit and tumor VEGF levels are normalized to the protein concentrations.
(§2) In similarly conducted experiments, compounds of the invention are shown to reduce lung cancer tumor growth (at a dosage of 3 mg/kg, twice a day, or 30 mg/kg, twice a day) (FIG. 1), Ewing's sarcoma and neuroblastoma tumor growth (at a dosage of 30 mg/kg, once a day) (FIG. 2), fibrosarcoma tumor growth (at a dosage of 10 mg/kg 3×/week) (FIG. 3), and human skin malignant melanoma (at a dosage of 10 mg/kg 5×/week) (FIG. 4) as compared to vehicle. Furthermore, the compounds of the invention are shown to reduce VEGF plasma and tumor levels in fibrosarcoma tumors as compared to vehicle (at a dosage of 10 mg/kg 3×/week) (FIG. 5).

For the next test, the system named is VEGF. In words: Tumor and plasma VEGF expression in vivo, alone or with Avastin. Particulars: alone or in combination with Avastin, FIG. 9. Set-up: species or system nude mice. As to the method: as §1, §2
Test [2] concerns human skin malignant melanoma. In words: Malignant melanoma tumor growth in vivo. Set-up: species or system nude mice. Particulars: 10 mg/kg 5×/week, vs vehicle, FIG. 4. The method, then: as §1, §2
Test [3] deals with neuroblastoma (SY5Y and NGP). Nature of the test: Neuroblastoma tumor growth in vivo. Set-up: species or system nude mice. Particulars: 30 mg/kg once a day, vs vehicle, FIG. 2. As to the method:
as §1
as §2, with “5). […]” for “5).”

The test system of test [4] is HT1080 cells (a human fibrosarcoma cell line). In words: In vivo tumor growth PD model, tumor and plasma VEGF levels by human VEGF ELISA. Further details: species or system nude mice. Conditions: 10 mg/kg 3×/week, vs vehicle, FIG. 5. The method, then: as §1, §2
The next test relates to VEGF mRNA. Nature of the test: VEGF mRNA levels by Real-Time PCR under hypoxic conditions. Type of test: cell-based, Human. Particulars: FIG. 11. As to the method:
Human solid tumor cells are treated with various concentrations of a compound of the present invention or a control under hypoxic conditions. Actinomycin D blocks transcription and is used as a control. Total RNA is isolated using the RNeasy kit (Qiagen, Inc., Valencia, Calif., USA) or an acid-guanidinium thiocyanate-phenol-chloroform based method (See Chomczynski, P. and Sacchi, N., Anal. Biochem. 162: 156 (1987), hereby incorporated by reference).
Concentration of total RNA can be determined using the RiboGreen® fluorescent dye (Molecular Probes, Inc., Eugene, Oreg., USA) with the VersaFluor Fluorometer System (BioRad, Hercules, Calif., USA). Quality and integrity of total RNA can be assessed on 1% formaldehyde-agarose gels. First-strand cDNA was synthesized using 1 μg of total RNA (DNase-treated) in a 20 μl reverse transcriptase reaction mixture (Leclerc G J, Barredo J C, Clin. Cancer Res. 2001, 7:942-951, which is hereby incorporated by reference). A region of the VEGF mRNA is amplified using PCR primers. The cDNA amplified fragment (approximately 300 basepairs) is cloned into a vector such as the pCR2.1-TOPO vector (Invitrogen, Carlsbad, Calif., USA) to generate a plasmid. […] Real-Time quantitations are performed using the BIO-RAD iCycler iQ system (BioRad, Hercules, Calif., USA). The fluorescence threshold value can be calculated using the iCycle iQ system software.
(Quantitative PCR measures a nucleic acid by following its amplification.)

The subject of test [5] is Ewing's sarcoma (SK-NEP-1). In words: Ewing's sarcoma tumor growth in vivo. Set-up: species or system nude mice. Conditions: 30 mg/kg once a day, vs vehicle, FIG. 2. The method, then: as §1
as §2, with “5). […]” for “5).”

The test system of another test is fibrosarcoma tumor. Nature of the test: Fibrosarcoma tumor growth in vivo. Set-up: species or system nude mice. Particulars: 10 mg/kg 3×/week, vs vehicle, FIG. 3. The method, then:
as §1, §2

The next test deals with tumor. In words: Tumor growth in vivo, alone or with Avastin. Conditions: alone or in combination with Avastin (bevacizumab), FIG. 8. Further details: species or system nude mice. As to the method:
as §1, §2

Another test deals with human cervical carcinoma. In words: Cervical cancer tumor growth in vivo, alone or with Taxol. Further details: species or system nude mice. Conditions: alone or in combination with Taxol (paclitaxel), FIG. 7.
The test system of the next test is colon cancer tumor. Nature of the test: Colon cancer tumor growth in vivo, alone or with 5-FU. Set-up: species or system nude mice. Conditions: alone or in combination with 5-FU (fluorouracil), FIG. 6.
For test [6], the system named is Ewing's sarcoma (SK-NEP-1) and neuroblastoma (SY5Y and NGP) tumors. In words: Angiogenesis in excised tumors, immunochemistry with antibodies to Collagen IV. Type of test: in vivo, mice. Conditions: Collagen IV staining of excised tumors, FIG. 10. An excerpt: The tumors excised from the mice can also be used in immunochemistry experiments to determine levels of angiogenesis. […] SK-NEP-1 cells were previously believed to be a useful Wilms tumor model.

Setting [7] is: Homo sapiens, HeLa cells under hypoxic conditions.
Setting [8] is: Homo sapiens, HeLa cells, hypoxic conditions (1% O2, 5% CO2).

Regarding `CCOC(=O)N1CCc2c([nH]c3ccc(Br)cc23)C1c1ccc(C(C)C)cc1` (centres unmarked) [Compound 7], the PDE-5 activity entry on recombinant PDE5 was “do not inhibit the activity of PDE-5”. The EC50 (as a rule, the midpoint of the concentration-response curve) in test [1] (setting [7]) is below 8 nM. With `COc1ccc(C2c3[nH]c4ccc(Cl)cc4c3CCN2C(=O)Oc2ccc(Cl)cc2)cc1` (centres unmarked) [Compound 10], the “lung cancer tumor growth” value in the test on lung cancer tumor was “inhibition of lung cancer tumor growth”. Further, in the test with VEGF, the “plasma VEGF expression” value was “inhibition” and the “tumor VEGF expression” value is on record as “inhibition”. In addition, the “malignant melanoma tumor growth” value in test [2] is “inhibition of malignant melanoma tumor growth”. Moreover, at recombinant PDE5, the PDE-5 activity result is “do not inhibit the activity of PDE-5”. For the same molecule, in test [3], the neuroblastoma tumor growth entry is “inhibition”. Also, the “VEGF expression in a fibrosarcoma tumor (tumor VEGF levels)” value in test [4] is listed as “inhibition of VEGF expression”. In addition, the “VEGF mRNA levels” value in the test on VEGF mRNA was “does not affect VEGF mRNA levels”. Besides, the “Ewing's sarcoma tumor growth” value in [5] is given as “inhibition”. The fibrosarcoma tumor growth entry in the test on fibrosarcoma tumor was “inhibition of fibrosarcoma tumor growth”. The tumor growth result with tumor is recorded as “inhibition of tumor growth”. Further, the “cervical cancer tumor growth” value in the test on human cervical carcinoma is recorded as “inhibition of cervical cancer tumor growth”. For the same molecule, the “colon cancer tumor growth” value with colon cancer tumor is given as “inhibition of colon cancer tumor growth”. Further, the angiogenesis entry in test [6] was “inhibition of angiogenesis”. This molecule came in with a half-maximal effective concentration (EC50) in test [1] (setting [7]) below 8 nM. Turning to `CC(C)c1ccc(C2c3[nH]c4ccc(Br)cc4c3CCN2c2ncccn2)cc1` (centres unmarked) [Compound 25], the PDE-5 activity entry at recombinant PDE5 is reported as “do not inhibit the activity of PDE-5”. The molecule further displayed a concentration giving a half-maximal response (EC50) in [1] (setting [7]) below 8 nM. `CN1CCN(CC(O)COc2ccc(C3c4[nH]c5ccc(Cl)cc5c4CCN3C(=O)Oc3ccc(F)cc3)cc2)CC1` (centres unmarked) [Compound 963] displayed a half-maximal effective concentration (EC50) in test [1] (setting [8]) of 8 to 40 nM. Consider `COCCN(C)CC(O)COc1ccc(C2c3[nH]c4ccc(Cl)cc4c3CCN2C(=O)Oc2ccc(Cl)cc2)cc1` (centres unmarked) [Compound 964], for which the EC50 in test [1] (setting [8]) lay in the range of 8 to 40 nM.

The molecule `CN1CCCC(COc2ccc(C3c4[nH]c5ccc(Cl)cc5c4CCN3C(=O)Oc3ccc(Cl)cc3)cc2)C1` (centres unmarked) [Compound 966] showed an EC50 in test [1] (setting [8]) of 8 to 40 nM.

In turn, `CN1CCN(CC(O)COc2ccc(C3c4[nH]c5ccc(Cl)cc5c4CCN3C(=O)Oc3ccc(Cl)cc3)cc2)CC1` (centres unmarked) [Compound 970] displayed a 50% effective concentration (EC50) in test [1] (setting [8]) of 8 to 40 nM.

In test [1] (setting [8]), `O=C(Oc1ccc(Cl)cc1)N1CCc2c([nH]c3ccc(Cl)cc23)C1c1ccc(OCC(O)Cn2ccnn2)cc1` (centres unmarked) [Compound 973] yielded a concentration giving a half-maximal response (EC50) of 8 to 40 nM.

For the molecule `CS(=O)(=O)Nc1ccc(C2c3[nH]c4ccc(Cl)cc4c3CCN2C(=O)Oc2ccc(Cl)cc2)cc1` (centres unmarked) [Compound 974], in test [1] (setting [8]), the EC50 was in the range of 40 to 200 nM. On to `CN1CCCC(COc2ccc(C3c4[nH]c5ccc(Cl)cc5c4CCN3C(=O)Oc3ccccc3Cl)cc2)C1` (centres unmarked) [Compound 976], for which the 50% effective concentration (EC50) in [1] (setting [8]) was in the range of 40 to 200 nM. The same measure, in the same setting: for `CC(C)NCC(O)COc1ccc(C2c3[nH]c4ccc(Cl)cc4c3CCN2C(=O)Oc2ccc(Cl)cc2)cc1` (centres unmarked) [Compound 977] the value was 40 to 200 nM; for `COc1ccc(OC(=O)N2CCc3c([nH]c4ccc(Cl)cc34)C2c2ccc(OCC3CCCN(C)C3)cc2)cc1` (centres unmarked) [Compound 981], 40 to 200 nM; for `O=C(Oc1ccc(Cl)cc1)N1CCc2c([nH]c3ccc(Cl)cc23)C1c1ccc(N2CCCC2)cc1` (centres unmarked) [Compound 984], 200 to 1000 nM. `CC(=O)N1CCN(CCCOc2ccc(C3c4[nH]c5ccc(Cl)cc5c4CCN3C(=O)Oc3ccc(F)cc3)cc2)CC1` (centres unmarked) [Compound 988] gave a half-maximal effective concentration (EC50) in test [1] (setting [8]) below 8 nM. With `O=C(Oc1ccc(F)cc1)N1CCc2c([nH]c3ccc(Cl)cc23)C1c1ccc(OCCCN2CCOCC2)cc1` (centres unmarked) [Compound 989], the EC50 in test [1] (setting [8]) was below 8 nM.

Regarding `COCCN(CCCOc1ccc(C2c3[nH]c4ccc(Cl)cc4c3CCN2C(=O)Oc2ccc(F)cc2)cc1)CCOC` (centres unmarked) [Compound 990], in [1] (setting [8]), the EC50 is below 8 nM. Take `O=C(Oc1ccc(F)cc1)N1CCc2c([nH]c3ccc(Cl)cc23)C1c1ccc(OCCCN2CCSCC2)cc1` (centres unmarked) [Compound 991]: the concentration for a half-maximal effect (EC50) in [1] (setting [8]) is 40 to 200 nM.

The molecule `COCCN(C)CCCOc1ccc(C2c3[nH]c4ccc(Cl)cc4c3CCN2C(=O)Oc2ccc(F)cc2)cc1` (centres unmarked) [Compound 992] came in with a concentration for a half-maximal effect (EC50) in test [1] (setting [8]) of 40 to 200 nM.

Turning to `CN1CCN(CCCOc2ccc(C3c4[nH]c5ccc(Cl)cc5c4CCN3C(=O)Oc3ccc(F)cc3)cc2)CC1` (centres unmarked) [Compound 993], the EC50 in test [1] (setting [8]) is below 8 nM.

In the case of `O=C(Oc1ccc(F)cc1)N1CCc2c([nH]c3ccc(Cl)cc23)C1c1ccc(OCCCn2ccnc2)cc1` (centres unmarked) [Compound 994], the EC50 in test [1] (HeLa cells, hypoxic conditions (1% O2, 5% CO2)) was below 8 nM.

In turn, `O=C(Oc1ccc(F)cc1)N1CCc2c([nH]c3ccc(Cl)cc23)C1c1ccc(OCCCn2ccnn2)cc1` (centres unmarked) [Compound 995] registered an EC50 in test [1] (setting [8]) below 8 nM. Still for that read-out and setting: for `O=C(Oc1ccc(Cl)cc1)N1CCc2c([nH]c3ccc(Cl)cc23)C1c1ccc(OCC(O)Cn2cncn2)cc1` (centres unmarked) [Compound 996] the value was below 8 nM.
